In article PMC9486808 (ACS Chemical Biology, 2022):
“Also recorded” adds a separate entry of the source. Read-outs that look alike come from different tables or passages of the source. Positions of bridges follow the written chain, without caps; N, C: chain ends. Non-standard residues stand in square brackets, D forms with d. Residues, ends and D or L forms follow the SMILES beside them.

Key:
H1 ectodomain [1] = target: T1, H1 ectodomain (Influenza A virus, UniProt C3W5S1); experiment: biochemical; assay type: binding, Influenza A virus A/California/04/2009 (H1N1); settings: read-out: Kd1
[2] = test system: H1N1pdm09 (A/Netherlands/602/2009); assay type: cell-based, Influenza A virus
[3] = test system: H3N1 virus carrying H3 HA of A/Bilthoven/1761/76 (H3N2) in the H1N1pr8 background; assay type: cell-based, Influenza A virus
[4] = test system: H5N1 virus carrying H5 HA of A/duck/Hunan/795/2002 in the H1N1pr8 genetic background; settings: 16 h
in vitro = settings: HeLa R19 cells and MDCKI cells
[5] = target: H1 ectodomain of A/California/04/2009 (H1N1) (Influenza A virus, UniProt C3W5S1); assay type: binding, Influenza A virus A/California/04/2009 (H1N1)
[6] = test system: H1N1pdm09 (A/Netherlands/602/2009); settings: for IC50: 16 h
[7] = test system: H1N1pr8 (A/PR8/8/34/Mount Sinai); assay type: cell-based, Influenza A virus
H1stem = assay type: binding, Influenza A virus A/Kentucky/UR06-0258/2007 (H1N1); settings: read-out: Kd1
H3 ectodomain = assay type: binding, Influenza A virus A/Fujian/411/2002 (H3N2); settings: for Kd: read-out: Kd1
H1 ectodomain [8] = target: T1, H1 ectodomain; experiment: biochemical; assay type: binding, Influenza A virus A/California/04/2009 (H1N1)
H1 HA = H1 HA (Influenza A virus, UniProt C3W5S1); assay type: binding, Influenza A virus A/California/04/2009 (H1N1)
H1N1pdm09 = test system: H1N1pdm09; set-up: species or system Influenza A virus
[9] = target: full-length H1 of A/California/04/2009 (H1N1) (Influenza A virus, UniProt C3W5S1); assay type: cell-based, Influenza A virus A/California/04/2009 (H1N1); settings: pH 5
[10] = test system: H5N1 virus carrying H5 HA of A/duck/Hunan/795/2002 in the H1N1pr8 genetic background; assay type: cell-based, Influenza A virus

SMILES	Kd (H1 ectodomain [1])	Inhibition of infection (infected cells relative to untreated control) [2]	Inhibition of infection (infected cells relative to untreated control) [3]	IC50 [4]	CC50 at 72 h (in vitro)	Binding region in the HA stem (HDX-MS) [5]	Inhibition of infection at a single concentration [6]	IC50 [6]	Inhibition of infection (infected cells relative to untreated control) [7]	Kd (H1stem)	Peptide binding by SPR (in words) (H3 ectodomain)	Kd (H3 ectodomain)	Kd (H1 ectodomain [8])	ΔTm (°C), purified peptide (H1 HA)	ΔTm (°C), crude peptide (H1 HA)	Interference of the peptide itself with hemagglutination (H1N1pdm09)	Loss of hemagglutination after pH 5 incubation (H1N1pdm09; pH 5)	Neutralizing activity in the presence of serum proteins [6]	Syncytia formation (cell-cell fusion) [9]	Inhibition of infection (infected cells relative to untreated control) [10]
CC(C)[C@@H]1NC(=O)[C@H](Cc2c[nH]c3ccccc23)NC(=O)[C@H](CCCNC(=N)N)NC(=O)[C@H](Cc2ccc(O)cc2)NC(=O)CSC[C@@H](C(=O)NCC(N)=O)NC(=O)[C@H](C(C)C)NC(=O)[C@H](C(C)C)NC(=O)[C@H](Cc2ccccc2)NC(=O)[C@H](Cc2ccc(O)cc2)NC(=O)[C@@H]2CCCN2C(=O)[C@H](CCC(=O)O)NC(=O)[C@H](CO)NC(=O)[C@H](Cc2ccccc2)NC(=O)[C@H](Cc2ccccc2)NC(=O)[C@H](CO)NC(=O)[C@H]([C@@H](C)O)NC(=O)[C@H](Cc2c[nH]c3ccccc23)NC1=O [L4] ({CH2CO}-YRWVWTSFFSEPYFVVCG-NH2; thioether N-17)	20.8 ± 1.4 nM	strongly inhibited infection	fell short of inhibiting	234 ± 66 nM	> 5000 nM	aa 369–387	strong inhibition of infection	104 ± 10.3 nM	strongly inhibited infection	2.6 ± 0.1 nM	no binding was observed	> 50 nM	≤ 1 nM	3.4 °C	–	–	–	–	–	–
CC[C@H](C)[C@@H]1NC(=O)[C@H](CCCCN)NC(=O)[C@H](CO)NC(=O)[C@H](Cc2c[nH]c3ccccc23)NC(=O)[C@H](Cc2ccc(O)cc2)NC(=O)[C@H]([C@@H](C)CC)NC(=O)[C@H](CCCCN)NC(=O)[C@H](CC(C)C)NC(=O)[C@@H](Cc2ccc(O)cc2)NC(=O)CSC[C@@H](C(=O)NCC(N)=O)NC(=O)[C@H](Cc2c[nH]c3ccccc23)NC(=O)[C@H](CCC(=O)O)NC(=O)[C@H](CO)NC(=O)[C@H](C(C)C)NC(=O)[C@H](CC(C)C)NC(=O)CNC(=O)[C@H](Cc2c[nH]cn2)NC1=O [S3] ({CH2CO}-[dY]LKIYWSKIHGLVSEWCG-NH2; thioether N-17)	16.8 ± 0.6 nM	strongly inhibited infection	fell short of inhibiting	17.5 ± 1.7 nM	> 5000 nM	aa 369–387	strong inhibition of infection	47.5 ± 7.1 nM	strongly inhibited infection	37.2 ± 18.8 nM	no binding was observed	> 50 nM	≤ 1 nM	4.2 °C	3.8 °C	–	–	–	–	–
CC(C)C[C@@H]1NC(=O)[C@H](C(C)C)NC(=O)[C@@H](Cc2ccc(O)cc2)NC(=O)CSC[C@@H](C(=O)NCC(N)=O)NC(=O)[C@H](C(C)C)NC(=O)[C@H](Cc2c[nH]c3ccccc23)NC(=O)[C@H](Cc2c[nH]cn2)NC(=O)[C@H]([C@@H](C)O)NC(=O)[C@H](C)NC(=O)[C@H](CC(C)C)NC(=O)[C@H]([C@@H](C)O)NC(=O)CNC(=O)[C@H](Cc2c[nH]cn2)NC(=O)[C@H](CC(=O)O)NC(=O)[C@H](Cc2c[nH]c3ccccc23)NC(=O)[C@H](CCCNC(=N)N)NC(=O)[C@H](Cc2ccccc2)NC1=O [S5] ({CH2CO}-[dY]VLFRWDHGTLATHWVCG-NH2; thioether N-17)	8.6 ± 1.1 nM	strongly inhibited infection	fell short of inhibiting	–	> 5000 nM	aa 369–387	strong inhibition of infection	–	strongly inhibited infection	11.3 ± 2.5 nM	no binding was observed	> 50 nM	≤ 1 nM	7.8 °C	4.8 °C	does not interfere with hemagglutination	prevented by S5	unaffected by the addition of serum proteins	greatly reduced; also recorded: inhibits fusion between H1 expressing cells	cross-neutralization was observed
